Laboratory results reported in US9994915B2, “miR-211 expression and related pathways in human melanoma” (Sanford-Burnham Medical Research Institute, priority 2010, dated 2018).

Columns and labels:
Type in all cases: cell-based, human
IGFBP5 mRNA = assay: Next Gen sequencing of IGFBP5 mRNA in WM1552C cells
Procedure: To extend the findings of the MITF knock-down study and to further establish IGFBP5 as a miR-211 target, the effect of miR-211 expression on IGFBP5 mRNA was determined. WM1552C cells were transfected with either an empty vector or the vector encoding and expressing miR-211. Additionally, untransfected WM1552C cells were treated with 5-Aza-2′deoxycytidine (“5-Aza”) to investigate whether miR-211 down-regulates IGFBP5 mRNA production through a genomic methylation mechanism.

miR-211 expression [1] = assay: qPCR of miR-211 expression under simulated hypoxia in melanocytes; settings: DFO-simulated hypoxia
Procedure: (§1) The effect of hypoxia on miR-211 expression was investigated under simulated (DFO) and actual hypoxic conditions in both melanocytes and SKMEL-28 cells. miRNA-211 expression was determined by qPCR.

A375 cells = assay: cell counts after DFO (simulated hypoxia), A375 and A375/211
Procedure: (§2) A375 cells and WM1552C, both wild-type and miR-211-expressing, were subjected to treatment with 0, 250 nM, or 400 nM defroxamine (DFO) to simulate hypoxic conditions in order to determine whether miR-211 expression is capable of being regulated by changes in O2 concentrations. Cell counts were performed for each treatment group.
(§3) Relative to untreated cells, survival was about 45% following 250 nM DFO and about 25% following 400 nM DFO. The presence of miR-211 in these cells caused this effect to be greatly exacerbated, reducing survival to about 13% at 250 nM DFO and about 8% at 400 nM DFO. Similarly, for WM1552C cells, survival was about 77% at 250 nM DFO and about 55% at 400 nM DFO, compared to untreated cells (FIG. 21).

WM1552C cells = assay: cell counts after DFO (simulated hypoxia), WM1552C and WM1552C/211
Procedure: as §2, §3

miR-211 expression [2] = assay: qPCR of miR-211 expression under simulated hypoxia in SKMEL-28 cells; settings: DFO-simulated hypoxia
Procedure: as §1

SKMEL-28 cells = assay: cell counts after DFO with or without miR-211 inhibitor, SKMEL-28
Procedure: SKMEL-28 cells, were subjected to the same DFO or hypoxic conditions as described above either in the presence or absence of an miR-211 inhibitor (has-miR-211 Anti-miR™ miRNA Inhibitor, Ambion, catalog numberAM17000, ID AM10168). […] The survival of SKMEL-28 cells was about 64% at 250 nM DFO and about 50% 400 nM DFO, compared to untreated cells. […] The survival of the SKMEL-28 cells treated with the miR-211 inhibitor was about 85% at 250 nM DFO and about 70% at 400 nM DFO.

Structure (SMILES) | IGFBP5 mRNA expression (IGFBP5 mRNA) | miR-211 expression (miR-211 expression [1]) | survival relative to untreated cells (A375 cells; A375/211 (miR-211-expressing) cells, 250 nM DFO) | survival relative to untreated cells (A375 cells; A375/211 (miR-211-expressing) cells, 400 nM DFO) | survival relative to untreated cells (A375 cells; A375 cells, 250 nM DFO) | survival relative to untreated cells (A375 cells; A375 cells, 400 nM DFO) | cell death (A375 cells; miR-211-expressing melanoma cells treated with hypoxia mimetic agent) | survival compared to untreated cells (WM1552C cells; WM1552C cells, 250 nM DFO) | survival compared to untreated cells (WM1552C cells; WM1552C cells, 400 nM DFO) | survival compared to untreated cells (WM1552C cells; WM1552C/211 (miR-211-expressing) cells, 250 nM DFO) | survival compared to untreated cells (WM1552C cells; WM1552C/211 (miR-211-expressing) cells, 400 nM DFO) | miR-211 expression (miR-211 expression [2]) | survival compared to untreated cells (SKMEL-28 cells; 250 nM DFO) | survival compared to untreated cells (SKMEL-28 cells; 400 nM DFO)
Nc1ncn([C@H]2C[C@H](O)[C@@H](CO)O2)c(=O)n1 [5-Aza, 5-Aza-2′deoxycytidine, reference compound] | no effect |  |  |  |  |  |  |  |  |  |  |  |  | 
CC(=O)N(O)CCCCCNC(=O)CCC(=O)N(O)CCCCCNC(=O)CCC(=O)N(O)CCCCCN [DFO, defroxamine] |  | increases in a dose-dependent manner | about 13% | about 8% | about 45% | about 25% | increased cell death | about 77% | about 55% | about 40% | about 21% | neither simulated nor actual hypoxic conditions had a significant effect | about 64% | about 50%
